Measured values taken from the CheMixHub viscosity set.
Several values for one entry are separate records, joined by “and”; a condition that tells them apart may be missing. Identical values can stand only once.

Experiment: xn = mol fraction of the nth substance listed

C1COCCN1 + O
293.15 K, 101 kPa
Conditions	viscosity [mPa·s]
x1 = 0.01898	1.327
x1 = 0.04739	1.963
x1 = 0.08285	3.082
x1 = 0.1083	4.064
x1 = 0.1739	7.227
x1 = 0.2362	10.22
x1 = 0.2817	11.61
x1 = 0.3018	11.87
x1 = 0.3247	12.17
x1 = 0.3476	12.13
x1 = 0.3543	12.09
x1 = 0.4548	10.43
x1 = 0.68	5.954

Cc1ccccn1 + O
viscosity [mPa·s]
Conditions	298.15 K	303.15 K	313.15 K	323.15 K
101 kPa, x1 = 0.02168	1.207	–	–	–
101 kPa, x1 = 0.05477	1.711	–	–	–
101 kPa, x1 = 0.1594	2.779	–	–	–
101 kPa, x1 = 0.2977	3.166	–	–	–
101 kPa, x1 = 0.6247	1.736	–	–	–
101.3 kPa, x1 = 0.1	–	1.916	1.467	1.168
101.3 kPa, x1 = 0.2	–	2.506	1.839	1.42
101.3 kPa, x1 = 0.3	–	2.594	1.909	1.465
101.3 kPa, x1 = 0.3999	–	2.364	1.757	1.362
101.3 kPa, x1 = 0.4997	–	1.982	1.515	1.201
101.3 kPa, x1 = 0.5999	–	1.554	1.237	1.008
101.3 kPa, x1 = 0.7	–	1.234	1.016	0.8611
101.3 kPa, x1 = 0.8146	–	0.9988	0.8497	0.7336
101.3 kPa, x1 = 0.8999	–	0.8499	0.7339	0.6501

O=C(CO)[C@@H](O)[C@H](O)[C@H](O)CO + O
Conditions	viscosity
293.15 K, 101 kPa, x1 = 0.011	1.18 mPa·s and 1.18 mPa·s
293.15 K, 101 kPa, x1 = 0.0244	1.84 mPa·s
293.15 K, 101 kPa, x1 = 0.0411	2.73 mPa·s
293.15 K, 101 kPa, x1 = 0.0625	5.02 mPa·s
293.15 K, 101 kPa, x1 = 0.0909	10.48 mPa·s and 11 mPa·s
293.15 K, 101 kPa, x1 = 0.13	31.43 mPa·s and 32 mPa·s
298.15 K, 101 kPa, x1 = 0.0005	0.934 mPa·s and 0.934 mPa·s
298.15 K, 101 kPa, x1 = 0.0007	0.9442 mPa·s and 0.9442 mPa·s
298.15 K, 101 kPa, x1 = 0.0009	0.9494 mPa·s and 0.9494 mPa·s
298.15 K, 101 kPa, x1 = 0.0018	0.9838 mPa·s and 0.9838 mPa·s
298.15 K, 101 kPa, x1 = 0.002	0.9772 mPa·s and 0.9772 mPa·s
298.15 K, 101 kPa, x1 = 0.00201	0.944 mPa·s
298.15 K, 101 kPa, x1 = 0.004	1.063 mPa·s
298.15 K, 101 kPa, x1 = 0.00623	1.094 mPa·s
298.15 K, 101 kPa, x1 = 0.011	1.02 mPa·s and 1 mPa·s
298.15 K, 101 kPa, x1 = 0.0244	1.59 mPa·s
298.15 K, 101 kPa, x1 = 0.0411	2.15 mPa·s
298.15 K, 101 kPa, x1 = 0.0625	4.17 mPa·s
298.15 K, 101 kPa, x1 = 0.0909	8 mPa·s and 8 mPa·s
298.15 K, 101 kPa, x1 = 0.13	24.3 mPa·s and 25 mPa·s
298.15 K, 101.3 kPa, x1 = 0.002	0.93 mPa·s
298.15 K, 101.3 kPa, x1 = 0.00359	0.969 mPa·s
298.15 K, 101.3 kPa, x1 = 0.007154	1.055 mPa·s
298.15 K, 101.3 kPa, x1 = 0.01069	1.15 mPa·s
298.15 K, 101.3 kPa, x1 = 0.01421	1.252 mPa·s
298.15 K, 101.3 kPa, x1 = 0.0177	1.362 mPa·s
298.15 K, 101.3 kPa, x1 = 0.02116	1.483 mPa·s
303.15 K, 100 kPa, x1 = 0.0009	0.8331 mPa·s
303.15 K, 100 kPa, x1 = 0.0027	0.8672 mPa·s
303.15 K, 100 kPa, x1 = 0.0045	0.9015 mPa·s
303.15 K, 100 kPa, x1 = 0.0063	0.9349 mPa·s
303.15 K, 101.3 kPa, x1 = 0.002	0.834 mPa·s
308.15 K, 101 kPa, x1 = 0.00201	0.7816 mPa·s
308.15 K, 101 kPa, x1 = 0.004	0.8663 mPa·s
308.15 K, 101 kPa, x1 = 0.00623	0.8883 mPa·s
308.15 K, 101 kPa, x1 = 0.007265	0.863 mPa·s
308.15 K, 101 kPa, x1 = 0.01082	0.928 mPa·s
308.15 K, 101 kPa, x1 = 0.011	0.93 mPa·s and 0.95 mPa·s
308.15 K, 101 kPa, x1 = 0.01435	1.01 mPa·s
308.15 K, 101 kPa, x1 = 0.02129	1.189 mPa·s
308.15 K, 101 kPa, x1 = 0.0244	1.27 mPa·s
308.15 K, 101 kPa, x1 = 0.02481	1.305 mPa·s
308.15 K, 101 kPa, x1 = 0.02821	1.394 mPa·s
308.15 K, 101 kPa, x1 = 0.04021	1.833 mPa·s
308.15 K, 101 kPa, x1 = 0.0411	1.96 mPa·s
308.15 K, 101 kPa, x1 = 0.0435	1.998 mPa·s
308.15 K, 101 kPa, x1 = 0.05099	2.372 mPa·s
308.15 K, 101 kPa, x1 = 0.0625	3.08 mPa·s
308.15 K, 101 kPa, x1 = 0.0909	5.99 mPa·s and 6.05 mPa·s
308.15 K, 101 kPa, x1 = 0.13	14.76 mPa·s and 14 mPa·s
308.15 K, 101.3 kPa, x1 = 0.002	0.753 mPa·s
313.15 K, 101 kPa, x1 = 0.011	0.77 mPa·s
313.15 K, 101 kPa, x1 = 0.0244	1.12 mPa·s
313.15 K, 101 kPa, x1 = 0.0411	1.52 mPa·s
313.15 K, 101 kPa, x1 = 0.0625	2.83 mPa·s
313.15 K, 101 kPa, x1 = 0.0909	4.51 mPa·s and 4.6 mPa·s
313.15 K, 101 kPa, x1 = 0.13	11.83 mPa·s and 11.8 mPa·s
313.15 K, 101.3 kPa, x1 = 0.002	0.685 mPa·s
318.15 K, 101 kPa, x1 = 0.007256	0.696 mPa·s
318.15 K, 101 kPa, x1 = 0.01084	0.758 mPa·s
318.15 K, 101 kPa, x1 = 0.02144	0.946 mPa·s
318.15 K, 101 kPa, x1 = 0.0244	0.99 mPa·s
318.15 K, 101 kPa, x1 = 0.02474	1.021 mPa·s
318.15 K, 101 kPa, x1 = 0.03978	1.469 mPa·s
318.15 K, 101 kPa, x1 = 0.0411	1.24 mPa·s
318.15 K, 101 kPa, x1 = 0.05983	2.055 mPa·s
318.15 K, 101 kPa, x1 = 0.0625	2.3 mPa·s
318.15 K, 101 kPa, x1 = 0.0909	3.65 mPa·s
318.15 K, 101 kPa, x1 = 0.13	9.57 mPa·s and 8 mPa·s
318.15 K, 101.3 kPa, x1 = 0.002	0.625 mPa·s
323.15 K, 101 kPa, x1 = 0.011	0.69 mPa·s
323.15 K, 101 kPa, x1 = 0.0244	0.92 mPa·s
323.15 K, 101 kPa, x1 = 0.0411	1.29 mPa·s
323.15 K, 101 kPa, x1 = 0.0625	2.04 mPa·s
323.15 K, 101 kPa, x1 = 0.0909	3.4 mPa·s
323.15 K, 101 kPa, x1 = 0.13	7.81 mPa·s and 7.5 mPa·s

O=[N+]([O-])[O-].O=[N+]([O-])[O-].O=[N+]([O-])[O-].[Nd+3] + O
viscosity [mPa·s], 101.3 kPa
Conditions	x1 = 0.009316	x1 = 0.01807	x1 = 0.02726	x1 = 0.03634	x1 = 0.05266	x1 = 0.06916	x1 = 0.07185
293.15 K	1.299	1.721	2.369	3.383	6.774	14.9	17.16
298.15 K	1.159	1.53	2.106	2.967	5.8	12.34	14.09
308.15 K	0.9433	1.242	1.696	2.353	4.38	8.715	9.848
